{
  "source": "patent US20100184807A1",
  "about": "“Methods to inhibit tumor cell growth by using proton pump inhibitors” (Bio-Quant, Inc., priority 2008, published 2010)",
  "tested_on": "GDM-1 (leukemia)",
  "experiment": "MTT tumor cell growth assay",
  "format": "cell-based",
  "details": "GDM-1 (FIG. 3J); 10 μM",
  "method": "In one study, adherent cells were plated approximately 16-24 hours before the day of the experiment in 180 μl growth media. On the day of the experiment, the plated adherent cells were analyzed and counted and suspension cells were plated in 180 μl growth media. 10× lansoprazole compounds and vehicle was prepared. The 10× lansoprazole compounds were prepared by diluting lansoprazole to final concentrations of 100 μM, 30 μM, 10 μM, 3 μM, and 1 μM. A vehicle was prepared by preparing a solution of PBS, equivalent to the volume used for 10 μM lansoprazole wherein the 1× solution constitutes ˜0.06% PBS. 10 μl of the various 10× lansoprazole solutions and the vehicle were added to the cells. The cells were incubated at 37° C., 5% CO2 for 48 hours. The media was then aspirated. The cell suspension was then spun at 1500 RPM for 10 minutes. The media was slowly removed. 200 μl of MTT solution was added to each well with a concentration of 0.863 mg/ml MTT in the growth media. The cells were incubated at 37° C., 5% CO2 for 4 hours and the medium is then aspirated. The plate containing the cell suspension was then spun at 1500 RPM for 10 minutes. The media was slowly removed using a multichannel pipettor. 100 μl of DMSO was then added to each well. The cells were incubated at 37° C., 5% CO2 for 5 minutes and the absorbance was obtained at 560 nm using a Dynex Opsys MR plate reader. The cells used for this procedure were the following cell lines: IGROV1 (ovarian cancer); OVCAR 8 (ovarian cancer); ES-2 (ovarian cancer); CAOV3 (ovarian cancer); OVCAR5 (ovarian cancer); SUDHL4 (lymphoma); RPMI8226 (myeloma); RPMI6666 (Hodgkin's lymphoma); NC37 (lymphoma); GDM-1 (leukemia); MC/CAR (prostate cancer); DU-145 (prostate cancer), J45-01 (leukemia), MOLT3 (leukemia), HUT78, J-gamma-1 (leukemia), MCF7 […], COL0205 (colon cancer), HL60 CLONE 15 (leukemia), T47D (breast cancer), P116 (intestinal cancer), KU812 (leukemia), SW620 (colon cancer), MK92-M1 (lymphoma), MV-4-11 (leukemia), HS578T (breast cancer), HT29 (colon cancer), HCT 116 (colon cancer), CAKI-1 (kidney cancer), A549 (lung cancer), H460 (lung cancer), A3 (colon cancer), MDA-MB231 […], MALME 3M (melanoma), RXF393 (kidney cancer), RS4.11 (leukemia), PC3 (prostate cancer), OVCAR3 (ovarian cancer), MDA-MB435 (melanoma), HUT102 (lymphoma), HL60 (leukemia), CCRF-CEM (leukemia), HUT78 (lymphoma), 786-O (kidney cancer), ACHN (kidney cancer), A498 (kidney cancer), H226 (lung cancer), H522 (lung cancer), HOP92 (lung cancer), SNB 19 (brain cancer), OVCAR4 (ovarian cancer), H9 (lymphoma), UO-31 (kidney cancer), HH (lymphoma), DAUDI (leukemia), LOXIMVI (melanoma), NAMALWA (lymphoma), EKVX (lung cancer), DOHH2 (lymphoma), SNB75 (brain cancer), SKMEL28 (melanoma), SKMEL5 (melanoma), SKMEL2 (melanoma), M14 (melanoma), UACC 257 (melanoma), H332M (lung cancer), KM12 (colon cancer), HCC2998 (colon cancer), G401 (kidney cancer), RS1184 (lymphoma), MC116 (leukemia), MOLT4 (leukemia), JM1 (liver cancer), HOP-62 (lung cancer), HCT-15 (colon cancer), SF-539 (brain cancer), SF295 (brain cancer), ST486 (lymphoma), U251 (brain cancer), and UACC-62 (melanoma).\nExperiments, as described in Example I were conducted with lansoprazole, omeprazole and SCH 28080 at concentrations of 1 μM, 10 μM, and 100 μM. FIGS. 3A-3K show the experimental results when tumor cells from the following cell lines were treated with lansoprazole, omeprazole, and SCH 28080: IGROV1 (FIG. 3A), OVCAR8 (FIG. 3B), ES-2 (FIG. 3C), CAOV3 (FIG. 3D), OVCAR5 (FIG. 3E), SUDHL4 (FIG. 3F), RPMI8226 (FIG. 3G), RPMI6666 (FIG. 3H), NC37 (FIG. 3I), GDM-1 (FIG. 3J), and MC/CAR (FIG. 3K).",
  "data": [
    {"smiles": "Cc1nc2c(OCc3ccccc3)cccn2c1CC#N", "note": "[SCH28080, SCH 28080]", "values": [
      {"measurement": "reducing tumor cell growth", "value": "effective in reducing tumor cell growth"}
    ]}
  ]
}
